{
  "source": "patent US20240174622A1",
  "about": "“COMPOUND AND RADIOACTIVE LABELING COMPOUND” (NIHON MEDI-PHYSICS CO., LTD., priority 2021, published 2024)",
  "key": {"[1]": {"assay": "Evaluation of stability in plasma", "format": "in vitro ADME", "details": "37° C., 24 hours", "protocol": "A saline (20 μL) solution of [^111In]In-PSMA-DA1 (370 kBq) or [^90Y]Y-PSMA-DA1 (3.7 MBq) was added to mouse plasma (200 μL), and the mixture was allowed to stand at 37° C. for 24 hours (n=3). Then, MeCN (200 μL) was added, and the mixture was centrifuged at 10,000×g for 5 minutes. The supernatant was filtered, and the filtrate was analyzed by reverse phase HPLC under the following conditions.\n(Analytical conditions: Cosmosil 5C18-PAQ column (4.6×250 mm); mobile phase: MeCN/H2O/TFA [20/80/0.1 (0 min) to 50/50/0.1 (30 min)]; flow rate: 1 mL/min.)\nA saline (20 μL) solution of [^111In]In-PtDA (259 kBq) was added to mouse plasma (200 μL), and the mixture was allowed to stand at 37° C. for 24 hours (n=3). MeCN (400 μL) was added thereto, and the mixture was centrifuged at 10,000×g for 5 minutes. The supernatant was filtered, and the filtrate was analyzed by reverse phase HPLC under the following conditions.\nAnalytical conditions: Cosmosil 5C18-AR-II column (4.6×150 mm); mobile phase: MeCN/H2O/TFA [10/90/0.1 (0 min) to 70/30/0.1 (30 min)]; flow rate: 1 mL/min."}, "[2]": {"tested_on": "PC-3 cells (PSMA-negative, human prostate cancer)", "assay": "Binding assay using cultured cells (PC-3)", "format": "cell-based", "details": "37° C., 1 hour", "protocol": "LNCaP cells (PSMA-positive, human prostate cancer) and PC-3 cells (PSMA-negative, human prostate cancer) were used. These cells were purchased from American Type Culture Collection and DS Biomedical, respectively. Each of the cells were cultured in RPMI 1640, which is manufactured by NACALAI TESQUE, INC. and contains antibiotics (penicillin and streptomycin) and 10% inactivated fetal bovine serum, at 37° C. under 5% CO2.\nThe LNCaP cells and PC-3 cells were each seeded on a 12 well plate at 4.0×10^5 cells/well, and left standing at 37° C. under 5% CO2 for 48 hours.\nThe culture medium was removed, and an assay medium (0.5% FBS-containing RPMI 1640 medium) solution (1 mL) containing [^111In]In-PSMA-DA1 or [^111In]In-PSMA-DB (37 kBq) was added. Thereafter, the plate was allowed to stand at 37° C. under 5% CO2 for 1 hour. […]\nThe radioactivity for each of the assay medium and the cell lysate was measured with a gamma counter. Separately, the total protein concentration in the cell lysate was calculated using BCA Protein Assay Kit, which is manufactured by Thermo Fisher Scientific K.K. The value (% ID/mg protein) obtained by dividing the percentage (% ID) of the sample's radioactivity amount to the added radioactivity amount by the total protein amount was calculated for each sample. […]"}},
  "data": [
    {"compound": "O=C([O-])CN1CCN(C(CCC(=O)NCCC(=O)N2Cc3ccccc3-c3c(nnn3CCOCCOCCOCCOCCC(=O)NCCCC[C@H](NC(=O)N[C@@H](CCC(=O)O)C(=O)O)C(=O)O)-c3ccccc32)C(=O)[O-])CCN(CC(=O)[O-])CCN(C(CCC(=O)N[C@@H](CCCCNC(=O)CCCc2ccc(I)cc2)C(=O)O)C(=O)[O-])CC1.[111In+3]", "note": "(some centres unmarked) [[^111In]In-PtDA]", "values": [
      {"measurement": "stably present in mouse plasma", "setting": "[1]", "result": "≥ 95", "unit": "%"},
      {"measurement": "binding to PC-3 cells", "setting": "[2]", "result": 0.15, "unit": "% ID/mg protein"}
    ]}
  ]
}
